In patent US20040175378A1, “Selected antibody compositions and methods for binding to aminophospholipids” (Board of Regents, The University of Texas System, priority 2002, published 2004):

Key:
[1] = ELISA binding to anionic phospholipids in 5 mM EDTA (Ca2+ requirement)
Procedure: The specificity of the 9D2 antibody binding was validated by using control rat IgM of irrelevant specificity (Pharmingen, San Diego, Calif.). The specificity of annexin V binding to phospholipids, which is Ca^2+-dependent, was determined by diluting the reagent in the DPBS containing 5 mM EDTA. Additional negative controls consisted of washing the plates with the binding buffer containing 0.2% of a detergent Tween 20. This treatment extracts lipids, thus removing the phospholipid that was absorbed to plastic. Neither 9D2 antibody nor annexin V bound to detergent-washed plates.

[2] = system: vascular endothelium of MDA-MB-231 breast tumors; assay: Double staining of orthotopic MDA-MB-231 tumors after i.v. biotinylated 9D2 or annexin V; type: in vivo, mice; conditions: 1 h
Procedure: In further studies, mice bearing MDA-MB-231 tumors (0.3-0.7 cm^3 in volume) were injected intravenously with 50 μg of biotinylated 9D2, control IgM or annexin V (six mice per group). Biotinylated reagents were first incubated with streptavidin-Cy3 conjugate, washed in PBS, then incubated with MECA 32 antibody followed by FITC-tagged anti-rat IgG secondary antibody. Single images, taken with appropriate filters for Cy3 (red) and FITC (green) fluorescence respectively, were captured by digital camera and transferred to a computer. […] The same method was used to analyze tumors from mice injected with control rat IgM or saline. The percentage of vessels with localized 9D2 or annexin V was calculated as follows: mean number of yellow vessels per field divided by mean number of green (total) vessels multiplied by 100.
Double staining studies were also performed in which mice bearing orthotopic MDA-MB-231 breast tumors were injected intravenously with biotinylated 9D2 antibody, biotinylated control IgM or biotinylated annexin V. One hour later, the mice were exsanguinated, and their tumors were removed and frozen sections were cut. The tumor sections were then stained with Cy3-conjugated streptavidin to detect the biotinylated proteins and with FITC-conjugated MECA32 to detect vascular endothelium. […]

[3] = system: anionic phospholipids on vascular endothelium; assay: Localization of 9D2 and annexin V in tumor bearing mice, indirect immunohistochemistry; type: in vivo; conditions: 50 μg antibody or 100 μg biotinylated annexin V i.v., 60 min
Procedure: To detect externally-positioned phospholipids, methods were performed essentially as previously described (Example V; Ran et al., 1998). Tumor-bearing SCID mice were injected intravenously with either 50 μg of 9D2 or biotinylated 9D2 antibody or 100 μg of biotinylated annexin V. Sixty min later mice were sacrificed and their blood circulation was exsanguinated and perfused with heparinized saline as previously described (Burrows et al., 1992). All major organs and tumor were harvested and snap-frozen for preparation of cryosections.
Sections were blocked with PBS containing 10% serum. To prevent loss of phospholipids during slide processing, detergents and organic solvents were omitted from blocking and washing buffers. Rat IgM was detected using goat anti rat IgM (μ specific)-HRP conjugate followed by development with carbazole or DAB (Fries et al., 1993). Biotinylated reagents were detected by streptavidin conjugated to HRP.
Tumor sections derived from mice injected with saline or rat IgM of irrelevant specificity served as negative controls. […] No signal was detected under these conditions. The number of positive vessels per high power field was determined at magnification of ×100. At least 10 fields per section were examined and the average percentage of positive vessels was calculated. […]
Structures with localized 9D2 antibody or annexin V were identified as blood vessels by morphological appearance on DAB-stained sections and by co-incident staining with the pan-endothelial cell marker, MECA 32 on serial sections of frozen tissues. Quantification on DAB-stained sections was done by counting vessels stained by MECA 32, 9D2 or annexin V in serial sections of a tumor. […] At least 10 random fields per section (0.317 mm^2/field) were scored in blinded fashion by two independent observers. The mean numbers and standard errors of vessels stained by 9D2, annexin V or MECA 32 were calculated. The mean number of 9D2 or annexin V-positive vessels determined in each tumor type group was compared to the mean number of MECA 32-positive vessels in the same tumor group. […]

[4] = Phospholipid specificity ELISA; type: binding; conditions: phospholipid-coated plates
Procedure: The specificity of the antibodies was determined by ELISA using plates coated with the following phospholipids: PS, phosphatidylserine; PE, phosphatidylethanolamine; PI, phosphatidylinositol; PA, phosphatidic acid; PG, phosphatidylglycerol; PC, phosphatidylcholine; CL, cardiolipin; and SM, sphingomyelin.

[5] = system: blood vessels of L540 Hodgkin tumors; assay: Annexin V inhibition of coaguligand-induced thrombosis in vivo; set-up: species or system SCID mice; conditions: 100 μg Annexin V 2 hours before 40 μg anti-VCAM-1•tTF
Procedure: The ability of Annexin V to inhibit coaguligand-induced thrombosis in vivo was examined in L540 Hodgkin-bearing SCID mice. Tumors were grown in mice and two mice per group (tumor size 0.5 cm in diameter) were injected intravenously via the tail vein with one of the following reagents: a) saline; b) 100 μg of Annexin V; c) 40 μg of anti-VCAM-1•tTF; d) 100 μg of Annexin V followed 2 hours later by 40 μg of anti-VCAM-1•tTF.
Four hours after the last injection mice were anesthetized and perfused with heparinized saline. Tumors were removed, fixed with 4% formalin, paraffin-embedded and stained with hematoxylene-eosin. The number of thrombosed and non-thrombosed blood vessels was counted and the percentage of thrombosis was calculated.

Factor X = assay: Chromogenic assay of coaguligand-induced Factor Xa formation on bEnd.3 cells; type: cell-based; conditions: Annexin V 10 μg per ml; cells preincubated with anti-VCAM-1•tTF
Procedure: The ability of Annexin V to affect Factor Xa formation induced by coaguligand was determined by a chromogenic assay. IL-1α-stimulated bEnd.3 cells were incubated with anti-VCAM-•tTF and permeabilized by saponin. Annexin V was added at concentrations ranging from 0.1 to 10 μg/ml and cells were incubated for 30 min. before addition of diluted Proplex T. The amount of Factor Xa generated in the presence or absence of Annexin V was determined. Each treatment was performed in duplicate and repeated at least twice.
Annexin V added to permeabilized cells preincubated with anti-VCAM-1•tTF inhibited the formation of factor Xa in a dose-dependent manner. In the absence of Annexin V, cell-bound coaguligand produced 95 ng of factor Xa per 10,000 cells per 60 min. The addition of increasing amounts of Annexin V (in the μg per ml range) inhibited factor Xa production. At 10 μg per ml, Annexin V inhibited factor Xa production by 58%.

## Annexin V: natural ligand that binds to anionic phospholipids; commercial biotinylated or recombinant human annexin V
[1]
  binding to anionic phospholipids in the presence of 5 mM EDTA: abolished in the presence of 5 mM EDTA
[2]
  MECA 32 positive vessels that bound the reagent: About 40%
[3]; B16 tumor
  positive vessels of MECA 32-stained vessels per field, mean ± SE: 21.3 ± 6.6%
[3]; L540cy tumor
  positive vessels of MECA 32-stained vessels per field, mean ± SE: 16.7 ± 3.9%
[3]; MDA-MB-231 tumor
  positive vessels of MECA 32-stained vessels per field, mean ± SE: 45.3 ± 5.6%
[4]
  Relative Strength of Reactivity on ELISA: PS = PE = PI = PA > CL > PG
[5]
  coaguligand-induced intravascular thrombosis and changes in tumor cell morphology: completely abolished
Factor X
  inhibition of factor Xa production: 58%
